Data on 26 compounds can be found in ChEMBL document CHEMBL5291721, “A preclinical secondary pharmacology resource illuminates target-adverse drug reaction associations of marketed drugs” (Nat Commun, 2023).

The structures appear in SMILES notation.

Usually AC50 stands for the concentration giving half of the maximal activity seen.

Some targets named below: D(1A) dopamine receptor (Homo sapiens, UniProt P21728); Histamine H3 receptor (Homo sapiens, UniProt Q9Y5N1); Mu-type opioid receptor (Homo sapiens, UniProt P35372).
In assay [1] the target is Voltage-gated inwardly rectifying potassium channel KCNH2 (Homo sapiens, UniProt Q12809). The format is functional.
Another assay deals with Acetylcholinesterase (Homo sapiens, UniProt P22303). Type of assay: functional.
For assay [2], the target named is T1, Alpha-2A adrenergic receptor (Homo sapiens, UniProt P08913).
T1 sequence (P08913 whole entry): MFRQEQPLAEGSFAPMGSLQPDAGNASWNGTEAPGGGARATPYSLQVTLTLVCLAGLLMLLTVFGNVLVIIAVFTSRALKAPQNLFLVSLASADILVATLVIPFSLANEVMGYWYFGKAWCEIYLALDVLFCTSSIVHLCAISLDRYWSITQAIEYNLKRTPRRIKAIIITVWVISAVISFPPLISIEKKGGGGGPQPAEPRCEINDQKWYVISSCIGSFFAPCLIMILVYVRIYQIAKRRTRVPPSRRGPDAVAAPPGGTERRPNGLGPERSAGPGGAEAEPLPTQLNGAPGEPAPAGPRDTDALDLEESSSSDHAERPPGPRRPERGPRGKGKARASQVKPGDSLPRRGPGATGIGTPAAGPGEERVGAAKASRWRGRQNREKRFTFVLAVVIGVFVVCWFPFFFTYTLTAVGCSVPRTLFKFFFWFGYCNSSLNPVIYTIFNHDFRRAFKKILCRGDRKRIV

The target of assay [3] is T2, 5-hydroxytryptamine receptor 1A (Homo sapiens, UniProt P08908).
T2 sequence (P08908 whole entry): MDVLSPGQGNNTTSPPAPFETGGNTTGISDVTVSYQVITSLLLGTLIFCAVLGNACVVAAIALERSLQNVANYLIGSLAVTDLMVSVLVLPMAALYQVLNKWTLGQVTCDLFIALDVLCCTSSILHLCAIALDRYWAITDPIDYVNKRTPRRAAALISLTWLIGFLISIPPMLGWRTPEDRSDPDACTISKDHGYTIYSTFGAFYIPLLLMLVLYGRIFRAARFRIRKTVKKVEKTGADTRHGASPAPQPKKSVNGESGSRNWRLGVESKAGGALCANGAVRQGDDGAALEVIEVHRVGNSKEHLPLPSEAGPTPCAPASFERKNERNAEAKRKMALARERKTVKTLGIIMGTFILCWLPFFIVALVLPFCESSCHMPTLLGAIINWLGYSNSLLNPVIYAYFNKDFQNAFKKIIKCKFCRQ

Assay [4] has as its target 5-hydroxytryptamine receptor 2B (Homo sapiens, UniProt P41595). Type of assay: functional, cell-based.
Assay [5] has as its target T3, Amine oxidase [flavin-containing] A (Homo sapiens, UniProt P21397).
T3 sequence (P21397 whole entry): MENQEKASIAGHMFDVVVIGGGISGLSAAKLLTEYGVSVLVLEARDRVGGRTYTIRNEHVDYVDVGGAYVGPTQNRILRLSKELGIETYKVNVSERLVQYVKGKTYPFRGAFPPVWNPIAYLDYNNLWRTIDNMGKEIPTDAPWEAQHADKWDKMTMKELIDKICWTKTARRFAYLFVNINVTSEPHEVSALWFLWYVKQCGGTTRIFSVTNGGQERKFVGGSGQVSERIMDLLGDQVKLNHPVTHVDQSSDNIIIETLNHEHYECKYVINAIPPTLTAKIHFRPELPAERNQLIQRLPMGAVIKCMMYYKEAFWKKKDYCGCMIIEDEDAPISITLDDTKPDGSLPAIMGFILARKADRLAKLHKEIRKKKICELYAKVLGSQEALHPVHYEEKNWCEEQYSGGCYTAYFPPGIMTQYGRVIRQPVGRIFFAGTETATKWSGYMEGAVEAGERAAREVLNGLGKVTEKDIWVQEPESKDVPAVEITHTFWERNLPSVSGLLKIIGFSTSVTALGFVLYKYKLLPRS
Type of assay: functional.

Assay [6] deals with cGMP-inhibited 3',5'-cyclic phosphodiesterase 3A (Homo sapiens, UniProt Q14432). The format is functional.
For assay [7], the target named is 3',5'-cyclic-AMP phosphodiesterase 4A (Homo sapiens, UniProt P27815). Type of assay: functional.
Assay [8] concerns the target T4, Prostaglandin G/H synthase 1 (Homo sapiens, UniProt P23219). Type of assay: functional.
The target in assay [9] is T4, Prostaglandin G/H synthase 1. Type of assay: functional. The source holds these as a separate data set.
The target of assay [10] is Sodium-dependent dopamine transporter (Homo sapiens, UniProt Q01959).
Another assay concerns the target T5, Thromboxane A2 receptor (Homo sapiens, UniProt P21731).
T5 sequence (P21731 whole entry): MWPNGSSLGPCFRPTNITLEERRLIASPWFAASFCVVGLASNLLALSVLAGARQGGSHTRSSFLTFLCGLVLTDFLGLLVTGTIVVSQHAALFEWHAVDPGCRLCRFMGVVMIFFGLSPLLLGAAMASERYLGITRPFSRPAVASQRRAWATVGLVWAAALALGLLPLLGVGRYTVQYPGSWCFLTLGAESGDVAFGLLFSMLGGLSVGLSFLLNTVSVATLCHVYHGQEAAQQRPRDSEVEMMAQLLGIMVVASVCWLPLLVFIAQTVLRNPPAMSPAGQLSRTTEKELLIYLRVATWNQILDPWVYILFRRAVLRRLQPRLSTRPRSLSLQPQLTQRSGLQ
The format is functional, cell-based.
Also: assay procedure not described here.

Sequence of D(1A) dopamine receptor (P21728 whole entry): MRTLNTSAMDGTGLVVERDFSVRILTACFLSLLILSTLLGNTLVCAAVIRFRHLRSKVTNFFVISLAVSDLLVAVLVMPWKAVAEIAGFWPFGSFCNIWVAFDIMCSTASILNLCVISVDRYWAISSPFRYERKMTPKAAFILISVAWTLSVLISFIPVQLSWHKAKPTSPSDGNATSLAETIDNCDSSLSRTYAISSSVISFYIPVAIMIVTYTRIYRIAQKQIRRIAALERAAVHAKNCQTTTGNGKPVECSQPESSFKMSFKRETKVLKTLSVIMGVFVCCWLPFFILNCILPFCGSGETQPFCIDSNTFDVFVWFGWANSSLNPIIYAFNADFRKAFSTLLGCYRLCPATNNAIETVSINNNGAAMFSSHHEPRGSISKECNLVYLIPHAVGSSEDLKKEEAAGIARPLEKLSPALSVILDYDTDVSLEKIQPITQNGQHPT
Sequence of Mu-type opioid receptor (P35372 whole entry): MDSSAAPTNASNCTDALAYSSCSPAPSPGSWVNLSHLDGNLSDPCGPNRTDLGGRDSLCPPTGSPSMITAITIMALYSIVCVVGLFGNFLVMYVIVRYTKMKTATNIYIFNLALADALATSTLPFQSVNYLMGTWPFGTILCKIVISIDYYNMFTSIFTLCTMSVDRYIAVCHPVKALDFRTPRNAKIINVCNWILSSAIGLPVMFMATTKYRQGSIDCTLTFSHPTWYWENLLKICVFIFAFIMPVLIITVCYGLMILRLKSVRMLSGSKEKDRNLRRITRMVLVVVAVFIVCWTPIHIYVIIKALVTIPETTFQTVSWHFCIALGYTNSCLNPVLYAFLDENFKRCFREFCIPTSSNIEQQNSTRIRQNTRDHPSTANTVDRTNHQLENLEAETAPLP
Sequence of 3',5'-cyclic-AMP phosphodiesterase 4A (P27815 whole entry): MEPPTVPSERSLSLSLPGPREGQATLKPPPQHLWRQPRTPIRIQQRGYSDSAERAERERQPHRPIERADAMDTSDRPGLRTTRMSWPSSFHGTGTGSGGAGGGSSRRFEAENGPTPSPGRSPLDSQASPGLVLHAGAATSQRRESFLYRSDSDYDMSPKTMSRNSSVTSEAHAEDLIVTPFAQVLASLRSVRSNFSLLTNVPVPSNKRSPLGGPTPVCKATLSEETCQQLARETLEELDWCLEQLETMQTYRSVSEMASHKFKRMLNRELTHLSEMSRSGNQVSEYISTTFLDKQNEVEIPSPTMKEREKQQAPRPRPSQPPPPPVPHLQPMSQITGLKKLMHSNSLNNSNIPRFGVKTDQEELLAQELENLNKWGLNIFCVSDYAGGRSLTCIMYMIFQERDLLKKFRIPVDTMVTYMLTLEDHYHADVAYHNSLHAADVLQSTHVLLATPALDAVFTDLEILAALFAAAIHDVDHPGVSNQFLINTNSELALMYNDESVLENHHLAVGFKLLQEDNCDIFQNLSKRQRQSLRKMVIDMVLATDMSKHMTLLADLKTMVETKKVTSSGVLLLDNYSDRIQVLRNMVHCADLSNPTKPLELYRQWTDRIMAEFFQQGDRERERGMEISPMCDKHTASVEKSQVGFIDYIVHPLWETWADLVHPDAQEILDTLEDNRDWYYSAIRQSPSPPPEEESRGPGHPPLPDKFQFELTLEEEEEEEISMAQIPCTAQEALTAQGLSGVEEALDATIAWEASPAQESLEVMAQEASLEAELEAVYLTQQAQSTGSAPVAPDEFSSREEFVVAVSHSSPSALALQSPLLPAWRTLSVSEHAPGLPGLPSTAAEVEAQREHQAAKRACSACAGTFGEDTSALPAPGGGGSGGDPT
Sequence of cGMP-inhibited 3',5'-cyclic phosphodiesterase 3A (Q14432 whole entry): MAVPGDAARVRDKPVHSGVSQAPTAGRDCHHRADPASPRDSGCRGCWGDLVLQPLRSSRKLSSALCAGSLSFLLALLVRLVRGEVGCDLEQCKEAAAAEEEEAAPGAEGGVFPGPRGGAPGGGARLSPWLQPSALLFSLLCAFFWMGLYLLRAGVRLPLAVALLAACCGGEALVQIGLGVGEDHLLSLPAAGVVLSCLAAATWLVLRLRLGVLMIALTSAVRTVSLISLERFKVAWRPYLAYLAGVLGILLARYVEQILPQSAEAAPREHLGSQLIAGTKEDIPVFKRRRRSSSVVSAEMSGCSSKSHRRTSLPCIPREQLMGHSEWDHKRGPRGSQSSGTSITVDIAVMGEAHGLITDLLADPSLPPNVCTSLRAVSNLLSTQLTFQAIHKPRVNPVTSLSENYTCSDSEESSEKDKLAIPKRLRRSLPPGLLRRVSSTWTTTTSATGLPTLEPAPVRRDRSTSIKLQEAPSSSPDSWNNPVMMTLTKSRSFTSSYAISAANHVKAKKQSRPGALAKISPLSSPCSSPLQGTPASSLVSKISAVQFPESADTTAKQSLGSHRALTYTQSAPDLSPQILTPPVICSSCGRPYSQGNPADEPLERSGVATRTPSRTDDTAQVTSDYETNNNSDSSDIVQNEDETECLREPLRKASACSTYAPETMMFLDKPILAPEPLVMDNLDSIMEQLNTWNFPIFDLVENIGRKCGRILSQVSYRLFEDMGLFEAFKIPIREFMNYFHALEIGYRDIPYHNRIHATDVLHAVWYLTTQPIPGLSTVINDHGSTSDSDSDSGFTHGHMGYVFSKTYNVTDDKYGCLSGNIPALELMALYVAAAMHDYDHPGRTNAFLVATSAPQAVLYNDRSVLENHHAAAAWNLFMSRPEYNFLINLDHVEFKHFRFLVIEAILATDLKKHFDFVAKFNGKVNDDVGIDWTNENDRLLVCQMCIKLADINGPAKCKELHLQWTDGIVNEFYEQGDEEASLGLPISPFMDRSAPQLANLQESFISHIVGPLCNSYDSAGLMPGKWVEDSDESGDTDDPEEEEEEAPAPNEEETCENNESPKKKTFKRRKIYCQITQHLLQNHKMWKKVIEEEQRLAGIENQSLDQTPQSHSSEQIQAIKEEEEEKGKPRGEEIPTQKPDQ
Sequence of Sodium-dependent dopamine transporter (Q01959 whole entry): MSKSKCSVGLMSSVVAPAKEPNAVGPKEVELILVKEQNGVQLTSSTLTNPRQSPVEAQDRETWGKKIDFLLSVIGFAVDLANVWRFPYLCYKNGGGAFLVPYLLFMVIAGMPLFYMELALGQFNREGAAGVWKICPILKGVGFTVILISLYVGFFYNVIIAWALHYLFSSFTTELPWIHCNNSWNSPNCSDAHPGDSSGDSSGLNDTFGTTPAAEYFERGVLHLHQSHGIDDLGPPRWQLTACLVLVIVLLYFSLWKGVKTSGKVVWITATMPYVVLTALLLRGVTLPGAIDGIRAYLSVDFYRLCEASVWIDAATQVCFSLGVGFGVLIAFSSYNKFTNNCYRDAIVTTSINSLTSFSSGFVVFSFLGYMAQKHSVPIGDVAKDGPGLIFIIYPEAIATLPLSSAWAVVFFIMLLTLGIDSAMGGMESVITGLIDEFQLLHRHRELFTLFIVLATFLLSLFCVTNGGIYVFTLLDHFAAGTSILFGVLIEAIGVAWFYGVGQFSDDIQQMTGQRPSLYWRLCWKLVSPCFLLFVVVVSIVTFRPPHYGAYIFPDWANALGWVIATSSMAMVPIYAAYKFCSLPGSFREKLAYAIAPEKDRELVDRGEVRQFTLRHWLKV
Sequence of Histamine H3 receptor (Q9Y5N1 whole entry): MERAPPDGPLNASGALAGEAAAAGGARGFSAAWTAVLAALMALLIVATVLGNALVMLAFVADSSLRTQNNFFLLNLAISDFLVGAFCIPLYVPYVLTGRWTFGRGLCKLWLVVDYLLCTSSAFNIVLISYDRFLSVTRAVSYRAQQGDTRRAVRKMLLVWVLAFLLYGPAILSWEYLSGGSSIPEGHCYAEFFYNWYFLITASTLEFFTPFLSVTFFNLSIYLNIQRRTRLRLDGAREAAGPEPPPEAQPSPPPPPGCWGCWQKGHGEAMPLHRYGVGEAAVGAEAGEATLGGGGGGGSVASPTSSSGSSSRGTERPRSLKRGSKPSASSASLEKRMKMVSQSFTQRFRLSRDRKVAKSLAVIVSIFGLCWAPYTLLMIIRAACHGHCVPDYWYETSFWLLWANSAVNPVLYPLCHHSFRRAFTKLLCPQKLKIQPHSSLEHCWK
Sequence of Acetylcholinesterase (P22303 whole entry): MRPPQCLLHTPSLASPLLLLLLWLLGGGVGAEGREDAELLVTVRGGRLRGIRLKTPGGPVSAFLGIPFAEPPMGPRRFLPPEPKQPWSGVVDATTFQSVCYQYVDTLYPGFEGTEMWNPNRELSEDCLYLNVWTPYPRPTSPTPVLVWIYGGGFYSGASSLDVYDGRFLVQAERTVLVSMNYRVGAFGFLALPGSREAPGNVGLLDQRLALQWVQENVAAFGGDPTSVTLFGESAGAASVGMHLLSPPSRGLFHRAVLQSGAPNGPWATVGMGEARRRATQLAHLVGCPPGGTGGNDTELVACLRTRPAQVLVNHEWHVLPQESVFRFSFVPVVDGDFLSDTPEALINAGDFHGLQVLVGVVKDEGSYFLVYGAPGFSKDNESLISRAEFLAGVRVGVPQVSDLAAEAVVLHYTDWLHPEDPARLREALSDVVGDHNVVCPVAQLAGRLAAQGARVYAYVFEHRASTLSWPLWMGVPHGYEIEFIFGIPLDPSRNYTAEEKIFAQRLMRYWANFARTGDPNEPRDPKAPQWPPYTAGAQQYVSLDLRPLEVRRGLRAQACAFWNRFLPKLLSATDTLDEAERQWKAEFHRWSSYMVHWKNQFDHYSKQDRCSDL
Sequence of 5-hydroxytryptamine receptor 2B (P41595 whole entry): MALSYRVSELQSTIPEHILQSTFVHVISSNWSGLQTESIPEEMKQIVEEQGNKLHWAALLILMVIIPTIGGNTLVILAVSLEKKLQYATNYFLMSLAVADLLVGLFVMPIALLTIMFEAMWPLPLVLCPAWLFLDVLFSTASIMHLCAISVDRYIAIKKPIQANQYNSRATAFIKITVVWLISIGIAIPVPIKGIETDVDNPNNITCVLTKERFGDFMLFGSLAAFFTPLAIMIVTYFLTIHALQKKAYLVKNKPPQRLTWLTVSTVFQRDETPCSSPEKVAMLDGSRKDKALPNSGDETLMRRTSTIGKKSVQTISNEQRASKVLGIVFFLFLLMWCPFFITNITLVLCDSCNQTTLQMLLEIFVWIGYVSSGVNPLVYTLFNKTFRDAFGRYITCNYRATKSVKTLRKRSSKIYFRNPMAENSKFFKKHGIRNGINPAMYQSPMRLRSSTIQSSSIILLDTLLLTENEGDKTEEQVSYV

Compound `CCOc1nc2cccc(C(=O)O)c2n1Cc1ccc(-c2ccccc2-c2nnn[nH]2)cc1` yielded a concentration at half-maximal activity (AC50) in [1] above 30 µM.

For the compound `CC(=O)Nc1ccc(CC(=O)O)cc1` [ACTARIT], the AC50 in assay [1] is above 30 µM.

For the compound `CC(C(=O)O)c1ccc2oc(-c3ccc(Cl)cc3)nc2c1` (stereo unspecified) [BENOXAPROFEN], the AC50 in [1] was above 30 µM.

With `CC1(C)S[C@@H]2[C@H](NC(=O)C(C(=O)O)c3ccccc3)C(=O)N2[C@H]1C(=O)O` (stereo partly specified) [CARBENICILLIN], in assay [1], the AC50 is above 30 µM.

In assay [1], `Cc1nnc(SCC2=C(C(=O)O)N3C(=O)[C@@H](NC(=O)Cn4cnnn4)[C@H]3SC2)s1` [CEFAZOLIN] registered an AC50 above 300 µM.

In [1], `CC=CC1=C(C(=O)O)N2C(=O)[C@@H](NC(=O)[C@H](N)c3ccc(O)cc3)[C@H]2SC1` [CEFPROZIL] had an AC50 above 30 µM.

Compound `CC(C)(O/N=C(\C(=O)N[C@@H]1C(=O)N2C(C(=O)[O-])=C(C[n+]3ccccc3)CS[C@H]12)c1csc(N)n1)C(=O)O` [CEFTAZIDIME] showed an AC50 in assay [1] above 300 µM.

For `CC(C)NC(=N)NC(=N)Nc1ccc(Cl)c(Cl)c1` [CHLORPROGUANIL], the half-maximal activity concentration (AC50) is above 30 µM at Acetylcholinesterase; 5.59 µM in assay [2]; 1.77 µM at D(1A) dopamine receptor; above 30 µM on Histamine H3 receptor; 3.82 µM in assay [3]; above 30 µM in assay [4]. For the same compound, the AC50 was 2.6 µM in assay [1]; above 30 µM in assay [5]; 11.2 µM at Mu-type opioid receptor; above 30 µM in assay [6]; above 30 µM in [7]; above 30 µM in [8]. For the same compound, the AC50 in assay [9] is above 30 µM; in assay [10] it was 1.86 µM; on Thromboxane A2 receptor, above 30 µM.

As to `CCCNC(=O)NS(=O)(=O)c1ccc(Cl)cc1` [CHLORPROPAMIDE], in assay [1], the concentration at half-maximal activity (AC50) was above 30 µM.

In assay [1], `Clc1ccc(Cn2c(CN3CCCC3)nc3ccccc32)cc1` [CLEMIZOLE] had a half-maximal activity concentration (AC50) of 0.86 µM.

`CCC(=O)O[C@]1(C(=O)CCl)[C@@H](C)C[C@H]2[C@@H]3CCC4=CC(=O)C=C[C@]4(C)[C@@]3(F)[C@@H](O)C[C@@]21C` [CLOBETASOL PROPIONATE]: the half-maximal activity concentration (AC50) in assay [1] was above 30 µM.

In the case of `CN[C@@H]1[C@H](O[C@H]2[C@H](O[C@H]3[C@H](O)[C@@H](O)[C@H](NC(=N)N)[C@@H](O)[C@@H]3NC(=N)N)O[C@@H](C)[C@]2(O)CO)O[C@@H](CO)[C@H](O)[C@H]1O` [DIHYDROSTREPTOMYCIN], the AC50 (at Acetylcholinesterase; in [2]; on D(1A) dopamine receptor; on Histamine H3 receptor; in assay [3]; in assay [4]) was above 30 µM throughout. The AC50 (in assay [5]; at Mu-type opioid receptor; in assay [6]; in [7]; in assay [8]; in assay [9]) was above 30 µM each time. For the same compound, the concentration at half-maximal activity (AC50) (in assay [10]; on Thromboxane A2 receptor) was above 30 µM throughout.

Compound `CNC[C@H](O)c1ccc(O)c(O)c1` [EPINEPHRINE] had a half-maximal activity concentration (AC50) in assay [1] above 30 µM.

`Cc1onc(-c2c(F)cccc2Cl)c1C(=O)N[C@@H]1C(=O)N2[C@@H]1SC(C)(C)[C@@H]2C(=O)O` [FLOXACILLIN] registered an AC50 in [1] above 30 µM.

Turning to `C#C[C@]1(O)C=C[C@H]2[C@@H]3CCC4=CC(=O)CC[C@@H]4[C@H]3CC[C@@]21CC` [GESTODENE], the AC50 (on Acetylcholinesterase; in assay [2]; at D(1A) dopamine receptor; at Histamine H3 receptor; in assay [3]; in assay [4]) was above 30 µM each time. Besides, the AC50 in assay [5] was above 30 µM; on Mu-type opioid receptor, 14.9 µM; in assay [6], above 30 µM; in assay [7] it was above 30 µM; in assay [8], above 30 µM; in assay [9], above 30 µM. Besides, the AC50 (in assay [10]; on Thromboxane A2 receptor) was above 30 µM in each case.

On to `CC[C@@H](CO)NC(=O)[C@@H]1C=C2c3cccc4c3c(cn4C)C[C@H]2N(C)C1` [METHYSERGIDE], for which, in assay [1], the concentration at half-maximal activity (AC50) is above 30 µM.

`CNC(=C[N+](=O)[O-])NCCSCc1csc(CN(C)C)n1` [NIZATIDINE] showed an AC50 in [1] above 30 µM.

Turning to `CN1Cc2c(N)cccc2C(c2ccccc2)C1` (stereo unspecified) [NOMIFENSINE], the AC50 in assay [1] amounted to 4.8 µM.

Regarding `CC(CN1c2ccccc2Sc2ccccc21)N(C)C` (stereo unspecified) [PROMETHAZINE], the AC50 at Acetylcholinesterase is above 30 µM; on D(1A) dopamine receptor it was 1.72 µM; at Histamine H3 receptor it was above 30 µM; in assay [3], 0.7 µM; in assay [4] it was above 30 µM; in assay [1], 0.922 µM. Also, the AC50 (in [5]; in assay [6]; in assay [7]; in [8]; in [10]; on Thromboxane A2 receptor) was above 30 µM throughout.

`CCCc1cc(=O)[nH]c(=S)[nH]1` [PROPYLTHIOURACIL] had an AC50 in assay [1] above 30 µM.

Turning to `Cn1cc(C(=O)[C@@H]2CCc3nc[nH]c3C2)c2ccccc21` [RAMOSETRON], in [1], the activity was half-maximal at 4.7 µM (AC50).

In [1], `CN(CCOc1ccc(CC2SC(=O)NC2=O)cc1)c1ccccn1` (stereo unspecified) [ROSIGLITAZONE] displayed an AC50 of 13 µM.

`S=P(N1CC1)(N1CC1)N1CC1` [THIOTEPA] displayed a concentration at half-maximal activity (AC50) in [1] of 9.6 µM.

Take `CC(C)C[C@H](NC(=O)[C@@H](O)[C@H](N)Cc1ccccc1)C(=O)O` [UBENIMEX]: the concentration at half-maximal activity (AC50) (at Acetylcholinesterase; in [2]; on D(1A) dopamine receptor; on Histamine H3 receptor; in [3]; in assay [4]) was above 30 µM throughout. Besides, the AC50 (in [1]; in [5]; at Mu-type opioid receptor; in assay [6]; in [7]; in [8]) was above 30 µM throughout. In addition, the concentration at half-maximal activity (AC50) (in assay [9]; in assay [10]; on Thromboxane A2 receptor) was above 30 µM in each case.

In turn, `CC(C)[C@H](N)C(=O)OCCOCn1cnc2c(=O)[nH]c(N)nc21` [VALACYCLOVIR] showed an AC50 in assay [1] above 30 µM.

`COc1cc(C(=O)NS(=O)(=O)c2ccccc2C)ccc1Cc1cn(C)c2ccc(NC(=O)OC3CCCC3)cc12` [ZAFIRLUKAST] showed an AC50 in assay [1] above 30 µM.
